The target of data set [1] is HCoV-NL63 nsp14 (Human coronavirus NL63, UniProt P0C6X5). Nature of the data set: RapidFire MS methyltransferase assay. It is filed as biochemical. The following applies: read-out: IC50. From the text: RapidFire MS methyltransferase assay on HCoV-NL63 nsp14
The target in data set [2] is human RNMT (Homo sapiens, UniProt O43148). The data set is described as follows: RNMT methyltransferase assay (Gray et al.). It is filed as biochemical. The text has this:
RNMT methyltransferase assay (Gray et al.) on human RNMT

The target of data set [3] is T1, HCoV-229E nsp14 (Human coronavirus 229E, UniProt P0C6X1).
T1 construct: gene rep
T1 sequence (P0C6X1 5593-6110): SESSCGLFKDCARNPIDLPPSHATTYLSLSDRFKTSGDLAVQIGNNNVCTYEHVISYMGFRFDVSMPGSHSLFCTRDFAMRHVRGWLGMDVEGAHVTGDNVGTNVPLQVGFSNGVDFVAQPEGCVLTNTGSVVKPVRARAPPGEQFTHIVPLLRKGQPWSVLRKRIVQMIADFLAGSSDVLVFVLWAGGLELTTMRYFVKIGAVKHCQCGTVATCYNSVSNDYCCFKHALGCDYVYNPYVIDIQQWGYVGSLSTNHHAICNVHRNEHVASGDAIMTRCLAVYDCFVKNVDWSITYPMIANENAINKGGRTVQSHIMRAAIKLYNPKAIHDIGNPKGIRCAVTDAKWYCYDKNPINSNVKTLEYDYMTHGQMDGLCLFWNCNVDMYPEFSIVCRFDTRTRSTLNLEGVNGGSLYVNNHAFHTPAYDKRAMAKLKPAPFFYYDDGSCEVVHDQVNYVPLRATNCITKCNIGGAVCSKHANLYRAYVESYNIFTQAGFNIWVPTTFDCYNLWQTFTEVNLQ
The data set is described as follows: RapidFire MS methyltransferase assay. It is filed as biochemical. The following applies: read-out: IC50. The text has this:
RapidFire MS methyltransferase assay on HCoV-229E nsp14

Data set [4] concerns the target T2, SARS-CoV-2 nsp14 (Severe acute respiratory syndrome coronavirus 2, UniProt P0DTD1).
T2 construct: gene rep
The data set is described as follows: RapidFire MS methyltransferase assay. The note with it: read-out: IC50. It is filed as biochemical. The text has this: RapidFire MS methyltransferase assay on SARS-CoV-2 nsp14

The target in data set [5] is T3, MERS-CoV nsp14 (Betacoronavirus England 1, UniProt K9N7C7).
T3 construct: gene rep
T3 sequence (K9N7C7 5909-6432 limits assumed): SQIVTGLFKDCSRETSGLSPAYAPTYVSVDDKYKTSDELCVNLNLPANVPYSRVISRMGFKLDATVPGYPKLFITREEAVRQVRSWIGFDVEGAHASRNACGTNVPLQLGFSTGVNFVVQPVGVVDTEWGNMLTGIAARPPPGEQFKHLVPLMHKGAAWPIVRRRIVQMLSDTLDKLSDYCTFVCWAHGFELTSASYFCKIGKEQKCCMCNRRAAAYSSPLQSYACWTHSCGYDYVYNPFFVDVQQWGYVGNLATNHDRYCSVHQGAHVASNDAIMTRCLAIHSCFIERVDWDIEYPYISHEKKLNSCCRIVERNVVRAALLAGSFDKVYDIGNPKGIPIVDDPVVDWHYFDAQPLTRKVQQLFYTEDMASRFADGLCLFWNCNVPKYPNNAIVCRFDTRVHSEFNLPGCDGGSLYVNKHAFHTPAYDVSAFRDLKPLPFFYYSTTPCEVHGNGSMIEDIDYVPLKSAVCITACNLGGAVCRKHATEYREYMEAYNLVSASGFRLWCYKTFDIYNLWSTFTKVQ
The data set is described as follows: biochemical.

The nature of data set [6]: in vitro. The following applies: liver microsomes; Mouse liver microsomes; read-out: Mouse liver Mic T1/2 / min. More on the design: mouse liver microsomal stability. The text has this:
We initiated our structure-activity relationship (SAR) studies by investigating various replacements for the benzothiazole group, compounds 2-17, Table 1. […] Relatively flat SAR is observed across this subset of compounds, indeed a 6,5 or 6,6 aromatic system with the appropriate connectivity as compound 1 display relatively similar potencies. […] In general, the mouse microsomal clearance was rather low for this set of molecules, with no significant instabilities introduced, with perhaps the exception of compound 4. With no significant advantages in either potency or mouse microsomal clearance (Table S2) identified for this subset, the benzothiazole was taken forward into subsequent SAR studies. Table 2. Enzymatic inhibition against SARS-CoV-2 nsp14, human RNMT, CHI-logD and mouse microsomal stability.

The nature of data set [7]: physchem.
Data set [8] in a line: in vitro. Also noted: MDCK permeability. The following applies: dog, MDCK.
The nature of data set [9]: in vitro. Also noted: MDCK permeability. The note with it: dog, MDCK. The source holds these as a separate data set.

A value given as a limit tells only on which side of the number the result lay.

Chain of human RNMT (O43148 whole entry): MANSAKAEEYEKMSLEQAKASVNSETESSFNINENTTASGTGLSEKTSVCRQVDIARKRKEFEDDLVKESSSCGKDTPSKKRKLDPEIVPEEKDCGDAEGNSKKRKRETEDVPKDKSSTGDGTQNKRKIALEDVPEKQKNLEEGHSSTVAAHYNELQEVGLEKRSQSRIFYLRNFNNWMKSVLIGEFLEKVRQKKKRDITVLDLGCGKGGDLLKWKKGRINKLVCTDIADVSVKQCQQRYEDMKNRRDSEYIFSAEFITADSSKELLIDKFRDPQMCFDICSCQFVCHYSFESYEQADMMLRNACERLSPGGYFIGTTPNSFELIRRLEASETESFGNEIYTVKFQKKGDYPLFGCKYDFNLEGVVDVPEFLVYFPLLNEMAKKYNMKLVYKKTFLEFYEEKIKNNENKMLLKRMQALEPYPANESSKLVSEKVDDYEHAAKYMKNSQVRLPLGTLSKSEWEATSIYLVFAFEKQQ
Chain of HCoV-NL63 nsp14 (P0C6X5 5568-6085): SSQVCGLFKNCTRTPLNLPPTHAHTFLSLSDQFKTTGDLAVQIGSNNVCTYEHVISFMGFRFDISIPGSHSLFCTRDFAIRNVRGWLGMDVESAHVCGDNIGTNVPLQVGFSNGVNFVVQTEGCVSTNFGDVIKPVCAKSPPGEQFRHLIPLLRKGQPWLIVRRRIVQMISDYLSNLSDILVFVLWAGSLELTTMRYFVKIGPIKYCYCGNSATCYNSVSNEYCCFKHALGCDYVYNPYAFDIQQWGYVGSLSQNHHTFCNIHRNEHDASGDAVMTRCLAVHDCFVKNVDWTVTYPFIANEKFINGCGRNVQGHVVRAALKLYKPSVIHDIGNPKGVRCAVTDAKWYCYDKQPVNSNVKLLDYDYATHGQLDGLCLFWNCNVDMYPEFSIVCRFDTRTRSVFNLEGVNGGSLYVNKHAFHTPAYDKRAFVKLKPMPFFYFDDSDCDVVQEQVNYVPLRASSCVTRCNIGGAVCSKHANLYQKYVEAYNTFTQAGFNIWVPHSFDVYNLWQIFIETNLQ

With `Nc1ncnc2c1ncn2[C@@H]1C[C@H](CSc2nc3ccccc3s2)[C@@H](O)[C@H]1O` [compound 26], the IC50 in data set [1] was 8 ± 3 nM; in [2] it was greater than 100000 nM; in [3] it was 21 ± 4 nM; in data set [4] it was 53 ± 30 nM; in data set [5], 730 nM. Moreover, the half-life in [6] was greater than 30 min. The logD in data set [7] turned out to be 1.5.
With `Nc1ncnc2c1ncn2[C@@H]1O[C@H](CNS(=O)(=O)c2ccc3ccccc3c2)[C@@H](O)[C@H]1O` [compound 32], the IC50 is 530 ± 120 nM in data set [1], greater than 100000 nM in data set [2], 300 ± 10 nM in [3] and 130 ± 40 nM in data set [4]. Moreover, in [8], the Papp was 1.2 ×10⁻⁶ cm/s. This molecule showed a logD in [7] of 1.5.
As for `Nc1ncnc2c1ncn2[C@@H]1O[C@H](/C=C/c2nc3ccccc3s2)[C@@H](O)[C@H]1O` [compound 33], the IC50 in data set [1] is 17 ± 1 nM; in [2], greater than 100000 nM; in data set [3], 51 ± 9 nM; in data set [4], 36 ± 10 nM. Besides, the Papp in data set [8] was 4.9 ×10⁻⁶ cm/s. The log distribution coefficient (logD) in [7] turned out to be 1.3.
As for `Nc1ncnn2c([C@@H]3O[C@H](CNS(=O)(=O)c4ccc5ccccc5c4)[C@@H](O)[C@H]3O)ccc12` [compound 34], the IC50 in data set [1] worked out at 760 ± 310 nM; in data set [2] it was 27700 nM; in data set [3], 320 ± 10 nM; in data set [4], 170 ± 30 nM. This molecule showed a Papp in data set [9] of 1 ×10⁻⁶ cm/s. Also, in data set [7], the logD was found to be 1.6.

The values above are taken from doi:10.1101/2025.09.30.679521v1, “Crystallographic characterisation and development of bi-substrate inhibitors of coronavirus nsp14 methyltransferase” (biorxiv, 2025).
